Here are results for 3 substances from patent US11840686B2, “Modulation of prekallikrein (PKK) expression” (Ionis Pharmaceuticals, Inc., priority 2013, dated 2023).

Data set [1] deals with human PKK mRNA. In words: Antisense inhibition of human PKK mRNA in HepaRG cells, 5,000 nM (Example 2). In kind it is cell-based. The method, boiled down: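 HepaRG cells (20,000/well) electroporated with 5,000 nM MOE gapmer (phosphorothioate backbone, 5-methylcytosines) and harvested after ~24 h. PKK mRNA measured by qRT-PCR with primer probe set RTS3454, normalized to RIBOGREEN total RNA; percent inhibition versus untreated cells.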

For data set [2], the system named is human PKK mRNA. As to the kind of experiment: Dose-dependent antisense inhibition of human PKK in HepaRG cells, 0.19-5.00 uM (Example 5). The data set is classed as cell-based. The method, boiled down: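 HepaRG cells (20,000/well) were electroporated with antisense oligonucleotide at 0.19, 0.56, 1.67 and 5.00 μM and treated for about 16 hours. PKK mRNA was quantified by qRT-PCR with primer probe set RTS3454, normalised to RIBOGREEN total RNA, and IC50 was derived per oligonucleotide.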

Data set [3] deals with basal and captopril-induced vascular permeability. As to the kind of experiment: Evans Blue basal and captopril-induced vascular permeability in mice (Example 12). The following applies: for OD600 nm of Evans Blue dye, Colon / OD600 nm of Evans Blue dye, Ears / OD600 nm of Evans Blue dye, Feet / OD600 nm of Evans Blue dye, Intestine: ISIS 482584 40 mg/kg sc twice a week 4 weeks, HOE-140 30 μg ip. In kind it is in vivo, mouse. As for the experimental part:
Basal permeability is the level of vascular permeability occurring in the tissues of naïve, untreated mice. The effect of ISIS 482584 in the prevention of vascular permeability, either basal or captopril-induced, was evaluated.
Group 1 consisted of 8 mice and was treated with PBS administered subcutaneously twice a week for 4 weeks. No other treatment was administered to Group 1 which served as a control group to measure the basal levels of vascular permeability.
Group 2 consisted of 8 mice and was treated with PBS administered subcutaneously twice a week for 4 weeks. At the end of the treatment period, the mice were intraperitoneally administered 20 μg of captopril. Group 2 served as the negative control group for captopril-induced vascular permeability.
Group 3 consisted of 8 mice and was treated with PBS administered subcutaneously twice a week for 4 weeks. At the end of the treatment period, the mice were intraperitoneally administered 30 μg of HOE-140. Group 3 served as a positive control for inhibition of basal vascular permeability.
Group 4 consisted of 8 mice and was treated with PBS administered subcutaneously twice a week for 4 weeks. At the end of the treatment period, the mice were intraperitoneally administered 20 μg of captopril. The mice were also intraperitoneally administered 30 μg of HOE-140. Group 4 served as a positive control for inhibition of captopril-induced vascular permeability.
Group 5 consisted of 8 mice and was treated with 40 mg/kg of ISIS 482584 administered subcutaneously twice a week for 4 weeks. Group 5 served as an experimental treatment group for examining the effect of ISIS 482584 on basal vascular permeability.
Group 6 consisted of 8 mice and was treated with 40 mg/kg of ISIS 482584 administered subcutaneously twice a week for 4 weeks. At the end of the treatment period, the mice were intraperitoneally administered 20 μg of captopril. Group 6 served as an experimental treatment group for examining the effect of ISIS 482584 on captopril-induced vascular permeability.
All the groups were then injected with 30 mg/kg of Evans Blue solution. The mice were sacrificed 30 min after the Evans Blue solution administration and colons, feet, ears, and intestines were harvested.
The harvested tissues from the feet, colon, intestine, and ears were placed separately in formamide solution overnight to leach out the Evans Blue dye. The formamide solution containing feet and ear tissue was heated to 55° C. and left overnight.

Where [4] appears, read: HepaRG cells, electroporation, approximately 16 hours, Table 35.
The mark [5] stands for this setting: HepaRG cells, electroporation, approximately 16 hours, Table 36.
Setting [6] is: HepaRG cells, electroporation, approximately 16 hours, Table 37.
Setting [7] is: HepaRG cells, electroporation, approximately 16 hours, Table 38.
[8] abbreviates: HepaRG cells, electroporation, approximately 16 hours, Table 39.
Where [9] appears, read: HepaRG cells, electroporation, approximately 16 hours, Table 40.
Where [10] appears, read: Table 34, HepaRG, electroporation, ~16 h.

pIC50: −log10 of the molar value. “And” between values parts separate entries of the source, which are not always exact repeats. Identical values can stand only once. Strand notation (5' to 3'): a small letter for the sugar, then the base; units joined by * are phosphorothioate-linked, units joined directly phosphodiester-linked; [ ] holds rarer units or linkages, { } end groups; capitals alone tell only the bases. e = 2'-O-(2-methoxyethyl) (MOE); [5mC] = 5-methylcytosine; d = 2'-deoxy (DNA)

Regarding “Tes Ges mCes Aes Aes Gds Tds mCds Tds mCds Tds Tds Gds Gds mCds Aes Aes Aes mCes Ae [ISIS 546254]”, the “inhibition of human PKK mRNA” value with human PKK mRNA [1] (HepaRG cells, 5,000 nM, electroporation, 24 hours) is on record as 95%. For the same substance, the pIC50 in the data set with human PKK mRNA [2] (4 point dose response curve (0.19-5.0 μM), HepaRG cells, electroporation) is 6.70 and 6.52.

Regarding “ISIS 482584: 5-10-5 MOE gapmer targeting murine PKK, GGCATATTGGTTTTTGGAAT; SEQ ID NO: 2244 (antisense eG*eG*e[5mC]*eA*eT*dA*dT*dT*dG*dG*dT*dT*dT*dT*dT*eG*eG*eA*eA*eT)”, the “basal vascular permeability” value in data set [3] (40 mg/kg s.c. twice a week for 4 weeks, Group 5 vs. Group 1) is reported as “reduced basal vascular permeability”. The “captopril-induced vascular permeability” value in data set [3] (40 mg/kg s.c. twice a week for 4 weeks, Group 6 vs. Group 2) is given as “reduced captopril-induced vascular permeability in most tissues”. Further, in data set [3] (basal (captopril No)), the “OD600 nm of Evans Blue dye, Colon” value worked out at 0.19; the “OD600 nm of Evans Blue dye, Ears” value amounted to 0.04; the “OD600 nm of Evans Blue dye, Feet” value is on record as 0.07; the “OD600 nm of Evans Blue dye, Intestine” value was 0.22. In data set [3] (captopril Yes), the “OD600 nm of Evans Blue dye, Colon” value came out at 0.37; the “OD600 nm of Evans Blue dye, Ears” value worked out at 0.00; the “OD600 nm of Evans Blue dye, Feet” value came out at 0.05; the “OD600 nm of Evans Blue dye, Intestine” value is reported as 0.22.

For the substance “531231 (eT*eA*eT*e[5mC]*eA*d[5mC]*dT*dG*dT*dA*d[5mC]*dT*dA*dG*dT*eT*eT*e[5mC]*e[5mC]*eT) [compound 531231]”, the “% inhibition” value with human PKK mRNA [1] (HepaRG cells, 5,000 nM antisense oligonucleotide, human PKK mRNA, Table 18) stood at 90%; with human PKK mRNA [1] (HepaRG cells, 5,000 nM antisense oligonucleotide, 5-10-5 gapmers, Table 16), 93%; with human PKK mRNA [1] (HepaRG cells, 5,000 nM antisense oligonucleotide, 5-10-5 gapmers, Table 17), 91%; with human PKK mRNA [1] (HepaRG cells, electroporation with 5,000 nM antisense oligonucleotide, approximately 24 hours, PKK mRNA by RT-PCR (RTS3454), relative to untreated control cells, Table 5 experiment), 98%; in the data set on human PKK mRNA [1] (HepaRG cells, electroporation with 5,000 nM antisense oligonucleotide, approximately 24 hours, PKK mRNA by RT-PCR (RTS3454), relative to untreated control cells, Table 6 experiment), 86%; in the data set on human PKK mRNA [1] (HepaRG cells, electroporation, 5,000 nM antisense oligonucleotide, approx. 24 hours, primer probe set RTS3454, relative to untreated control cells, Table 11), 90%. Moreover, the “% inhibition” value in the data set on human PKK mRNA [1] (HepaRG cells, electroporation, 5,000 nM antisense oligonucleotide, approx. 24 hours, primer probe set RTS3454, relative to untreated control cells, Table 12) was 90%; in the data set with human PKK mRNA [1] (Table 7, HepaRG cells, electroporation with 5,000 nM antisense oligonucleotide, approx. 24 hours, PKK mRNA by RT-PCR (RTS3454), relative to untreated control cells) it was 88%; in the data set with human PKK mRNA [1] (Table 8, HepaRG cells, electroporation with 5,000 nM antisense oligonucleotide, approx. 24 hours, PKK mRNA by RT-PCR (RTS3454), relative to untreated control cells), 95%; with human PKK mRNA [1] (Table 9 experiment, HepaRG cells, 20,000 cells per well, electroporation with 5,000 nM antisense oligonucleotide, approx. 24 hours, PKK mRNA by RT-PCR (RTS3454), relative to untreated control cells), 96%; in the data set on human PKK mRNA [1] (Table 10 experiment, HepaRG cells, 20,000 cells per well, electroporation with 5,000 nM antisense oligonucleotide, approx. 24 hours, PKK mRNA by RT-PCR (RTS3454), relative to untreated control cells), 72%; in the data set with human PKK mRNA [1] (Table 13, human PKK mRNA in HepaRG cells, 5-10-5 gapmers), 85%. The “% inhibition” value in the data set with human PKK mRNA [1] (human PKK mRNA in HepaRG cells, 5-10-5 gapmers, Table 14) worked out at 85%; in the data set on human PKK mRNA [1] (human PKK mRNA, HepaRG cells, 5-10-5 motif oligonucleotides targeting SEQ ID NO: 1 and 10) it was 93%. Moreover, the “percent inhibition of PKK at 0.19 μM” value in the data set on human PKK mRNA [2] (setting [4]) was determined as 25%; in the data set with human PKK mRNA [2] (setting [5]), 58%; with human PKK mRNA [2] (setting [6]) it was 34%; in the data set with human PKK mRNA [2] (setting [7]) it was 21%; in the data set on human PKK mRNA [2] (setting [8]) it was 21%; with human PKK mRNA [2] (setting [9]) it was 6%. The “percent inhibition of PKK at 0.19 μM” value in the data set with human PKK mRNA [2] (setting [10]) was 32%. The “percent inhibition of PKK at 0.56 μM” value in the data set on human PKK mRNA [2] (setting [4]) stood at 34%; in the data set with human PKK mRNA [2] (setting [5]) it was 64%; with human PKK mRNA [2] (setting [6]) it was 47%; in the data set on human PKK mRNA [2] (setting [7]), 45%; in the data set on human PKK mRNA [2] (setting [8]), 39%; with human PKK mRNA [2] (setting [9]), 38%. Further, the “percent inhibition of PKK at 0.56 μM” value in the data set on human PKK mRNA [2] (setting [10]) is listed as 30%. Besides, the “percent inhibition of PKK at 1.67 μM” value with human PKK mRNA [2] (setting [4]) is given as 84%; with human PKK mRNA [2] (setting [5]) it was 77%; in the data set with human PKK mRNA [2] (setting [6]), 72%; with human PKK mRNA [2] (setting [7]) it was 67%; with human PKK mRNA [2] (setting [8]) it was 90%; in the data set on human PKK mRNA [2] (setting [9]), 74%. For the same substance, in the data set with human PKK mRNA [2] (setting [10]), the “percent inhibition of PKK at 1.67 μM” value is 73%. Further, the “percent inhibition of PKK at 5.00 μM” value with human PKK mRNA [2] (setting [4]) was 92%; in the data set with human PKK mRNA [2] (setting [5]) it was 98%; in the data set on human PKK mRNA [2] (setting [7]) it was 96%; in the data set with human PKK mRNA [2] (setting [8]), 97%; in the data set with human PKK mRNA [2] (setting [9]), 95%; in the data set with human PKK mRNA [2] (HepaRG cells, electroporation, approximately 16 hours, Table 41), 97%. Also, in the data set with human PKK mRNA [2] (setting [10]), the “percent inhibition of PKK at 5.00 μM” value amounted to 89%. Also, the “percent inhibition of PKK at 0.19 0μM” value in the data set on human PKK mRNA [2] (0.19 0μM, HepaRG cells, electroporation, approximately 16 hours, Table 41) came out at 25%. In the data set on human PKK mRNA [2] (0.56 0μM, HepaRG cells, electroporation, approximately 16 hours, Table 41), the “percent inhibition of PKK at 0.56 0μM” value was 55%. Moreover, the “percent inhibition of PKK at 1.67 1μM” value in the data set with human PKK mRNA [2] (1.67 1μM, HepaRG cells, electroporation, approximately 16 hours, Table 41) is reported as 89%. Moreover, the negative logarithm of the IC50 (pIC50) in the data set on human PKK mRNA [2] (4 point dose response, HepaRG cells, Table 35) was 6.15; in the data set with human PKK mRNA [2] (4 point dose response, HepaRG cells, Table 37), 6.30; in the data set on human PKK mRNA [2] (4 point dose response, HepaRG cells, Table 38), 6.15; with human PKK mRNA [2] (4 point dose response, HepaRG cells, Table 39), 6.22; with human PKK mRNA [2] (4 point dose response, HepaRG cells, Table 40), 6.10; in the data set with human PKK mRNA [2] (4 point dose response, HepaRG cells, Table 41), 6.30. The negative logarithm of the IC50 (pIC50) was 6.00 and 6.10 in the data set with human PKK mRNA [2] (HepaRG cells, 0.19-5.00 μM); 6.30 with human PKK mRNA [2] (Table 34, PKK mRNA, HepaRG, electroporation, ~16 h). Further, the “percent inhibition of PKK mRNA, 0.19 μM” value in the data set with human PKK mRNA [2] (HepaRG cells, 0.19 μM antisense oligonucleotide) is 7% and 6%. For the same substance, in the data set on human PKK mRNA [2] (HepaRG cells, 0.56 μM antisense oligonucleotide), the “percent inhibition of PKK mRNA, 0.56 μM” value is 39% and 56%. The “percent inhibition of PKK mRNA, 1.67 μM” value with human PKK mRNA [2] (HepaRG cells, 1.67 μM antisense oligonucleotide) was 56% and 68%. Also, the “percent inhibition of PKK mRNA, 5.00 μM” value in the data set on human PKK mRNA [2] (HepaRG cells, 5.00 μM antisense oligonucleotide) is reported as 97%.
